For orientation: IC50 means the point on the concentration scale where inhibition reaches its midpoint.

Among the data in patent publication US12509444B2, “Compounds and methods for CD73 modulation and indications therefor” (Plexxikon Inc., priority 2019, dated 2025) are IC50 values, retold here.

The target of one experiment is T1, human CD73 (Homo sapiens, UniProt P21589).
T1 construct: expressed in transfected cells
T1 sequence (P21589 27-549): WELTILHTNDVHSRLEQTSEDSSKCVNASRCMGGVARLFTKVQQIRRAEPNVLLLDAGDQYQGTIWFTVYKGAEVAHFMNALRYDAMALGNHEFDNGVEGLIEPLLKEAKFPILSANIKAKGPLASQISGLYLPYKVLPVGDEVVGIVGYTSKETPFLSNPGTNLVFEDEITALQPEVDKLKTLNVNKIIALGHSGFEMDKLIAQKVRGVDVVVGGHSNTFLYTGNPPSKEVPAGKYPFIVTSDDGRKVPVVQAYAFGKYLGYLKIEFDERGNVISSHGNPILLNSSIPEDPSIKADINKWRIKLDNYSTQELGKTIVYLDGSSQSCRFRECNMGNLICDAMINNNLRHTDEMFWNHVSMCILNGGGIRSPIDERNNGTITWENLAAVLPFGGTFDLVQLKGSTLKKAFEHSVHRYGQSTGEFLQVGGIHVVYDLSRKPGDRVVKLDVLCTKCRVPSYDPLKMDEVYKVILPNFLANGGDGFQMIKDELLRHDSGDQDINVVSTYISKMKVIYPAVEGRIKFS
The experiment is described as follows: Inhibitor activity against CD73 in cell based assay (CD73 expressing CHO-K1 cells). The following applies: CHO-K1 cells expressing human CD73, 150 μM AMP, 4 hours of incubation; read-out: CHO-K1 CELL VARIANT: CD73 IC50. The method, then: Determine Inhibitor Activity Against CD73 in Cell Based Assay
CD73 expressing CHO-K1 cell clones were generated upon stable transfection of a plasmid expressing human CD73 under the control of CMV promoter. Cells were selected in Ham's F-12K (Kaighn's) media supplemented with 10% fetal bovine serum and 1 mg/ml G418 at 37° C. in a humidified incubator supplied with 5% CO2. The assays were performed as follows. Cells were seeded in a 96 well plate in 50 μL of culture media at a density of 1×10^4 per well. Compound at a maximal concentration of 5 mM was serially diluted 1:3 in DMSO for a total of 8 point titration. A 2 μL aliquot of each dilution point was added to 248 μL culture media and 25 µL was added to each well, providing 10 μM compound at the maximum concentration point. AMP was diluted in culture media and 25 μL was added to each well with a final concentration of 150 μM. 4 wells containing 0.2% DMSO treated cells and AMP served as high controls and 4 wells containing media only with 0.2% DMSO and AMP served as low controls. After 4 hours of incubation, 20 μL of the supernatant was transferred to a 384 well plate. AMP level in supernatant was measured indirectly by adding 5 μL of CellTiter-Glo® 2.0 reagent and 5 μL of ATP with a final concentration of 1 μM. Following incubation of plate at room temperature for 30 minutes, luminescent signal was read on a Tecan plate reader. The percentage inhibition at individual concentrations relative to high and low controls was calculated. The data were analyzed by using nonlinear regression to generate IC50 values.

The target of experiment [1] is T2, Human CD73 (amino acid residues 27-549) (Homo sapiens, UniProt P21589).
T2 construct: Human CD73 (amino acid residues 27-549); His tag (N); made in house; host or cells: E. coli
T2 sequence (P21589 27-549): T1 sequence (P21589 27-549)
The experiment is described as follows: CD73 enzymatic assay (luciferase-based indirect assay, CellTiter-Glo). The class given is biochemical. The following applies: 0.4 nM CD73, 150 μM AMP, 1 hour at room temperature. The method, then: CD73 enzymatic activity was measured in a luciferase-based indirect assay using CellTiter-Glo® system from Promega. The luciferase reaction in the presence of ATP is inhibited by AMP, a primary substrate of CD73. Addition of CD73 enzyme to the reaction converts AMP to adenosine, and release the inhibition, producing a luminescent signal. Inhibition of CD73 leads to the decrease of this luminescent signal.
Human CD73 (amino acid residues 27-549) with N-Terminal His tag was purified in E. coli. All the assay components were prepared in 50 mM HEPEs buffer (pH 7.4) with 0.01% Tween® 20. The CD73 enzymatic assay was performed using 0.4 nM CD73 and 150 μM AMP. 9.5 μL of CD73 protein and 9.5 μL of AMP were added to the wells of a 384 well plate containing 1 μL of various concentrations of test compound or DMSO vehicle and incubated for 1 hour at room temperature. 16 wells containing CD73, AMP and 5% DMSO served as high control. 16 wells containing AMP and 5% DMSO served as low control. Enzymatic reaction was stopped and AMP level was measured indirectly by adding 5 μL of CellTiter-Glo® 2.0 reagent and 5 μL of ATP with a final concentration of 1 μM. Following incubation of the plate at room temperature for 30 minutes, luminescent signal was read on a Tecan plate reader. The percentage inhibition at individual concentrations relative to high and low controls was calculated. The data were analyzed by using nonlinear regression to generate IC50 values.

Turning to `O=C(N[C@@H]1CCN(c2cn[nH]c(=O)c2Cl)C1)OC1CCCCC1` [P-0015, cyclohexyl (R)-(1-(5-chloro-6-oxo-1,6-dihydropyridazin-4-yl)pyrrolidin-3-yl)carbamate], the IC50 at human CD73 lay in the range of 10 to 100 µM; in experiment [1], 0.001 to 10 µM.
Taken in the same sequence, the figures for `O=C(NC1CCCC1)O[C@@H]1CCN(c2cn[nH]c(=O)c2Cl)C1` [P-0017, (R)-1-(5-chloro-6-oxo-1,6-dihydropyridazin-4-yl)pyrrolidin-3-yl cyclopentylcarbamate] were 0.001 to 10 µM and 0.001 to 10 µM.
For the molecule `O=C(NC1CCCCC1)O[C@@H]1CCN(c2cn[nH]c(=O)c2Cl)C1` [P-0018, (R)-1-(5-chloro-6-oxo-1,6-dihydropyridazin-4-yl)pyrrolidin-3-yl cyclohexylcarbamate], the IC50 (on human CD73; in experiment [1]) was 0.001 to 10 µM throughout.
With `O=C(NC1CCCC1)O[C@H]1CCN(c2cn[nH]c(=O)c2Cl)C1` [P-0020, (S)-1-(5-chloro-6-oxo-1,6-dihydropyridazin-4-yl)pyrrolidin-3-yl cyclopentylcarbamate], the IC50 on human CD73 fell in the range of 10 to 100 µM; in experiment [1] it was 0.001 to 10 µM.
Taken in the same sequence, the figures for `O=C(NC1CCCCC1)O[C@H]1CCN(c2cn[nH]c(=O)c2Cl)C1` [P-0021, (S)-1-(5-chloro-6-oxo-1,6-dihydropyridazin-4-yl)pyrrolidin-3-yl cyclohexylcarbamate] were 10 to 100 µM and 0.001 to 10 µM.
For `O=C(NC1CCC(F)(F)CC1)N[C@@H]1CCN(c2cn[nH]c(=O)c2Cl)C1` [P-0022, (R)-1-(1-(5-chloro-6-oxo-1,6-dihydropyridazin-4-yl)pyrrolidin-3-yl)-3-(4,4-difluorocyclohexyl)urea], the half-maximal inhibitory concentration (IC50) is 10 to 100 µM at human CD73 and 0.001 to 10 µM in experiment [1].
For `O=C(N[C@@H]1CCN(c2cn[nH]c(=O)c2Cl)C1)OC1CCCC1` [P-0030, cyclopentyl (R)-(1-(5-chloro-6-oxo-1,6-dihydropyridazin-4-yl)pyrrolidin-3-yl)carbamate], the IC50 on human CD73 is 10 to 100 µM; in experiment [1], 0.001 to 10 µM.
On to `O=C(NC1CCCCC1)N[C@@H]1CCN(c2cn[nH]c(=O)c2Cl)C1` [P-0039, (R)-1-(1-(5-chloro-6-oxo-1,6-dihydropyridazin-4-yl)pyrrolidin-3-yl)-3-cyclohexylurea], for which the 50% inhibitory concentration (IC50) (at human CD73; in experiment [1]) was 0.001 to 10 µM throughout.
Regarding `O=C(NC1CCCC1)N[C@@H]1CCN(c2cn[nH]c(=O)c2Cl)C1` [P-0046, (R)-1-(1-(5-chloro-6-oxo-1,6-dihydropyridazin-4-yl)pyrrolidin-3-yl)-3-cyclopentylurea], the IC50 (on human CD73; in experiment [1]) was 0.001 to 10 µM each time.
As for `O=C(NC1CCN(C(=O)C(F)(F)F)CC1)N[C@@H]1CCN(c2cn[nH]c(=O)c2Cl)C1` [P-0047, (R)-1-(1-(5-chloro-6-oxo-1,6-dihydropyridazin-4-yl)pyrrolidin-3-yl)-3-(1-(2,2,2-trifluoroacetyl)piperidin-4-yl)urea], the IC50 was 10 to 100 µM on human CD73 and 0.001 to 10 µM in experiment [1].
Taken in the same sequence, the figures for `CC(C)(C)OC(=O)N1CCC(NC(=O)N[C@@H]2CCN(c3cn[nH]c(=O)c3Cl)C2)CC1` [P-0051, tert-butyl (R)-4-(3-(1-(5-chloro-6-oxo-1,6-dihydropyridazin-4-yl)pyrrolidin-3-yl)ureido)piperidine-1-carboxylate] were 10 to 100 µM and 0.001 to 10 µM.
Taken in the same sequence, the figures for `CS(=O)(=O)N1CCC(NC(=O)N[C@@H]2CCN(c3cn[nH]c(=O)c3Cl)C2)C1` (stereo partly drawn) [P-0052, 1-((R)-1-(5-chloro-6-oxo-1,6-dihydropyridazin-4-yl)pyrrolidin-3-yl)-3-(1-(methylsulfonyl)pyrrolidin-3-yl)urea] were 10 to 100 µM and 0.001 to 10 µM.
Taken in the same sequence, the figures for `O=C(NC1CCS(=O)(=O)C1)N[C@@H]1CCN(c2cn[nH]c(=O)c2Cl)C1` (stereo partly drawn) [P-0054, 1-((R)-1-(5-chloro-6-oxo-1,6-dihydropyridazin-4-yl)pyrrolidin-3-yl)-3-(1,1-dioxidotetrahydrothiophen-3-yl)urea] were 10 to 100 µM and 0.001 to 10 µM.
With `Cc1c(N2CC[C@@H](NC(=O)OC(C)(C)C)C2)cn[nH]c1=O` [P-0056, tert-butyl (R)-(1-(5-methyl-6-oxo-1,6-dihydropyridazin-4-yl)pyrrolidin-3-yl)carbamate], the results for the IC50 (at human CD73; in experiment [1]) were 10 to 100 µM and 0.001 to 10 µM, respectively.
Taken in the same sequence, the figures for `Cc1c(N2CC[C@@H](NC(=O)NC3CCCC3)C2)cn[nH]c1=O` [P-0057, (R)-1-cyclopentyl-3-(1-(5-methyl-6-oxo-1,6-dihydropyridazin-4-yl)pyrrolidin-3-yl)urea] were 10 to 100 µM and 0.001 to 10 µM.
Taken in the same sequence, the figures for `Cc1c(N2CC[C@@H](NC(=O)NC3CCCC3)C2)cnn(C(=O)NC2CCCC2)c1=O` [P-0058, (R)-N-cyclopentyl-4-(3-(3-cyclopentylureido)pyrrolidin-1-yl)-5-methyl-6-oxopyridazine-1(6H)-carboxamide] were 10 to 100 µM and 0.001 to 10 µM.
Taken in the same sequence, the figures for `Cc1c(N2CC[C@@H](NC(=O)NC3CCCCC3)C2)cn[nH]c1=O` [P-0059, (R)-1-cyclohexyl-3-(1-(5-methyl-6-oxo-1,6-dihydropyridazin-4-yl)pyrrolidin-3-yl)urea] were 10 to 100 µM and 0.001 to 10 µM.
On to `C[C@H]1CN(c2cn[nH]c(=O)c2Cl)C[C@@H]1NC(=O)NC1CCCCC1` [P-0062, 1-((3R,4S)-1-(5-chloro-6-oxo-1,6-dihydropyridazin-4-yl)-4-methylpyrrolidin-3-yl)-3-cyclohexylurea], for which the half-maximal inhibitory concentration (IC50) on human CD73 lay within 10 to 100 µM; in experiment [1] it was 0.001 to 10 µM.
Take `C[C@H]1CN(c2cn[nH]c(=O)c2Cl)C[C@@H]1NC(=O)OC1CCCCC1` [P-0063, cyclohexyl ((3R,4S)-1-(5-chloro-6-oxo-1,6-dihydropyridazin-4-yl)-4-methylpyrrolidin-3-yl)carbamate]: the IC50 on human CD73 was 10 to 100 µM; in experiment [1], 0.001 to 10 µM.
Taken in the same sequence, the figures for `N#Cc1c(N2CC[C@@H](NC(=O)NC3CCCC3)C2)cn[nH]c1=O` [P-0064, (R)-1-(1-(5-cyano-6-oxo-1,6-dihydropyridazin-4-yl)pyrrolidin-3-yl)-3-cyclopentylurea] were 10 to 100 µM and 0.001 to 10 µM.
Taken in the same sequence, the figures for `N#Cc1c(N2CC[C@@H](NC(=O)NC3CCCCC3)C2)cn[nH]c1=O` [P-0065, (R)-1-(1-(5-cyano-6-oxo-1,6-dihydropyridazin-4-yl)pyrrolidin-3-yl)-3-cyclohexylurea] were 0.001 to 10 µM and 0.001 to 10 µM.
Taken in the same sequence, the figures for `CN(C(=O)OC1CCCCC1)C1CCN(c2cn[nH]c(=O)c2Cl)C1` (stereo not shown) [P-0068, cyclohexyl (1-(5-chloro-6-oxo-1,6-dihydropyridazin-4-yl)pyrrolidin-3-yl)(methyl)carbamate] were 10 to 100 µM and 0.001 to 10 µM.
For the molecule `N#CC1(NC(=O)OC2CCCCC2)CCN(c2cn[nH]c(=O)c2Cl)C1` (stereo not shown) [P-0074, cyclohexyl (1-(5-chloro-6-oxo-1,6-dihydropyridazin-4-yl)-3-cyanopyrrolidin-3-yl)carbamate], the IC50 on human CD73 lay within 10 to 100 µM; in experiment [1], 0.001 to 10 µM.
